In ChEMBL document CHEMBL4425106, “Uncoupling the Structure-Activity Relationships of β2 Adrenergic Receptor Ligands from Membrane Binding” (J Med Chem, 2016):

Target: Beta-2 adrenergic receptor (Homo sapiens) (UniProt P07550)
Sequence (P07550 whole entry, looked up): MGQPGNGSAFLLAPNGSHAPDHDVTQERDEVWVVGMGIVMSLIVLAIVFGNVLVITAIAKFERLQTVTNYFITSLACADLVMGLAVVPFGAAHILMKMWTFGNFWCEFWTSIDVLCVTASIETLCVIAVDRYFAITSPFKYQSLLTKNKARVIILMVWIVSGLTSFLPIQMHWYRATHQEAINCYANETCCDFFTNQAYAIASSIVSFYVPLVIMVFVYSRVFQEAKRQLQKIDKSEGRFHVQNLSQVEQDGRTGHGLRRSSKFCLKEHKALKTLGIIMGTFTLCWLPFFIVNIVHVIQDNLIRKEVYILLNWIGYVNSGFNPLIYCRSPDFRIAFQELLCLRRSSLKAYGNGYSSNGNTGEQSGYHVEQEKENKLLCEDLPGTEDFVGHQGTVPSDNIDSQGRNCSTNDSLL
Description: Binding affinity to inactive/G protein-uncoupled human beta2-AR by immobilized artificial membrane HPLC analysis

Row | Structure (SMILES) | log K
1 | CC(C)(C)NCC(O)COc1cccc2c1CC(O)C(O)C2 (mixture of isomers) | 1.7
2 | CC(C)(C)NCC(O)COc1cccc2[nH]c(C#N)cc12 (racemic) | 2.9
